“And” between values parts separate entries of the source, which are not always exact repeats. Equal values may be shown once.
System: LH
Assay: LRH assay in vivo in rats: serum LH by radioimmunoassay before and after injection of the peptide
Conditions: for mμg LH/ml serum before: before injection; for increase of the LH level: in vivo assay in rats
Description: The LRH assay was performed by the procedure of Ramirez and McCann (Endocrinology 73, 193 (1963) ). Serum assays for LH were performed in duplicate by the double antibody radioimmuno assay of Niswender et al. (Proc. Soc. Exp. Biol. Med. 128, 807 (1968)) using antiovine LH serum and ovine LH-^131 I. The activity was determined by comparison of LH levels before and after injection of the peptide.

Compound: CC(C)C[C@H](NC(=O)CNC(=O)[C@H](Cc1ccc(O)cc1)NC(=O)[C@H](CO)NC(=O)[C@H](Cc1c[nH]c2ccccc12)NC(=O)[C@H](Cc1c[nH]cn1)NC(=O)[C@@H]1CCC(=O)N1)C(=O)N[C@@H](CCCNC(=N)N)C(=O)N1CCC[C@H]1C(=O)NCC(=O)O [II, pGlu-His-Trp-Ser-Tyr-Gly-Leu-Arg-Pro-Gly-OH]
- mμg LH/ml serum before (dose level 25 μg): 4.4 mμg LH/ml serum and 5.8 mμg LH/ml serum
- mμg LH/ml serum after (dose level 200 μg, after injection): > 285.0 mμg LH/ml serum
- mμg LH/ml serum before (dose level 200 μg): < 4.0 mμg LH/ml serum and 4.0 mμg LH/ml serum

Compound: CC(C)C[C@H](NC(=O)CNC(=O)[C@H](Cc1ccc(O)cc1)NC(=O)[C@H](CO)NC(=O)[C@H](Cc1c[nH]c2ccccc12)NC(=O)[C@H](Cc1c[nH]cn1)NC(=O)[C@@H]1CCC(=O)N1)C(=O)N[C@@H](CCCNC(=N)N)C(=O)N1CCC[C@H]1C(=O)NCC(N)=O [I, pGlu-His-Trp-Ser-Tyr-Gly-Leu-Arg-Pro-Gly-NH2]
- doses at which it releases LRH (active dose): 1 to 25 ng
- increase of the LH level (dose of 25 ng): 30 times
- increase of the LH level (dose of 50 ng): maximum increase
- potency compared among the three decapeptides I, II, III (rat, in vivo): most potent

— patent publication US3974135A, “Synthetic decapeptide having the activity of the luteinizing hormone releasing hormone and method for producing the same” (priority 1972, dated 1976)
